Values quoted from earlier work as cited in US20140163109A1, “TASTE-MASKED IBUPROPEN GRANULES” (GLATT AG, priority 2012, published 2014).

solubility in water: poorly soluble in water
SMILES: CC(C)Cc1ccc(C(C)C(=O)O)cc1 (racemic) [Ibuprofen, (±)-2-(4-isobutylphenyl) propionic acid]
